Assay results published in patent US10023532B2, “Alkyl phenyl sulfide derivative and pest control agent” (KUMIAI CHEMICAL INDUSTRY CO., LTD., priority 2012, dated 2018).

Legend:
[1] = tested on: Nilaparvata lugens Stál (brown rice planthopper); assay: Insecticidal activity test for Nilaparvata lugens Stál (brown rice planthopper); assay type: in vivo; settings: active ingredient concentration 100 ppm, sprouting unhulled rice immersed, 10 3-instar larvae, 25° C., after 6 days, no replication; for mortality at 100 ppm: Nilaparvata lugens, 144 h
Experimental: A wettable powder prepared based on Formulation Example 2 was diluted with water into an active ingredient concentration of 100 ppm. In the solution was immersed sprouting unhulled rice. They were placed in a 60-ml plastic cup. Thereinto were released 10 3-instar larvae of brown rice planthopper. The cup was covered with a lid and placed in a thermostat of 25° C. After 6 days, the number of living insects was counted and the mortality of insect was determined from the calculation formula of the following Mathematical Expression 2. This test was conducted with no replication. Mortality (%)=100−[(number of living insects after 6 days)/(number of tested insects)]×100 [Mathematical Expression 2]
As in the case of Test Example 1, tests similar to the above were conducted using, as comparative compounds, compound Nos. 22 and 23 described in JP-A-1975-29744, compound Nos. 4, 5, 6 described in JP-A-1976-19121 and compound Nos. 18, 19 and 36 described in JP-A-1988-41451.

[2] = tested on: Tetranychus urticae Koch (two spotted spider mite); assay: Control effect test for Tetranychus urticae Koch (two spotted spider mite); assay type: in vivo; settings: active ingredient concentration 4 ppm, soybean seedlings with 35 female adults immersed, 25° C., after 13 days, no replication; for pest or weed control at 4 ppm: Tetranychus urticae, 312 h
Experimental: A wettable powder prepared based on Formulation Example 2 was diluted with water into an active ingredient concentration of 4 ppm. In the solution were immersed soybean seedlings which had been inoculated with 35 female adults of two spotted spider mite. The soybean seedlings were dried in the air and placed in a thermostat of 25° C. After 13 days, the number of living female adults was examined and the control value of the active ingredient was determined using the calculation formula of the following Mathematical Expression 1. This test was conducted with no replication. Control value=100−[(number of living female adults after 13 days, in treated seedlings)/(number of living female adults after 13 days, in non-treated seedlings)]×100 [Mathematical Expression 1]
Tests similar to the above were conducted using, as comparative compounds, compound Nos. 22 and 23 described in JP-A-1975-29744, compound Nos. 3, 4, 5, 6 described in JP-A-1976-19121 and compound Nos. 18, 19 and 36 described in JP-A-1988-41451. The structures of these comparative compounds are as follows.

| SMILES | mortality at 100 ppm [1] [%] | pest or weed control at 4 ppm [2] [%] | control value [2] | mortality [1] |
| --- | --- | --- | --- | --- |
| [O-][S+](CC(F)(F)F)c1cc(OCCCCCSC(F)(F)F)c(F)cc1Cl (racemic) [A-0434, 5-trifluoromethylthiopentyl-[4-chloro-2-fluoro-5-(2,2,2-trifluoroethylsulfinyl)phenyl] ether] | ≥ 90 | ≥ 90 |  |  |
| Cc1cc(F)c(OCCCCC(C)(C)C)cc1SCC(F)(F)F [A-0085, 5,5-dimethylhexyl-[2-fluoro-4-methyl-5-(2,2,2-trifluoroethylthio)phenyl] ether] | ≥ 90 | ≥ 90 |  |  |
| Cc1cc(F)c(OCCCCC(C)(C)C)cc1[S+]([O-])CC(F)(F)F (stereo not shown) [A-0086, 5,5-dimethylhexyl-[2-fluoro-4-methyl-5-(2,2,2-trifluoroethylsulfinyl)phenyl] ether] | ≥ 90 | ≥ 90 |  |  |
| Fc1cc(Cl)c(SCC(F)(F)F)cc1OCCCCCSC(F)(F)F [A-0433, 5-trifluoromethylthiopentyl-[4-chloro-2-fluoro-5-(2,2,2-trifluoroethylthio)phenyl] ether] | ≥ 90 |  |  |  |
| Cc1ccc(OCCCCCSC(F)(F)F)cc1SCC(F)(F)F [A-0438, 5-trifluoromethylthiopentyl-[4-methyl-3-(2,2,2-trifluoroethylthio)phenyl] ether] | ≥ 90 | ≥ 90 |  |  |
| Cc1ccc(OCCCCCSC(F)(F)F)cc1[S+]([O-])CC(F)(F)F (stereo not shown) [A-0439, 5-trifluoromethylthiopentyl-[4-methyl-3-(2,2,2-trifluoroethylsulfinyl)phenyl] ether] | ≥ 90 | ≥ 90 |  |  |
| FC(F)(F)CSc1cc(OCCCCCCSC(F)(F)F)c(Cl)cc1Cl [A-0478, 6-trifluoromethylthiohexyl-[2,4-dichloro-5-(2,2,2-trifluoroethylthio)phenyl] ether] |  | ≥ 90 |  |  |
| [O-][S+](CC(F)(F)F)c1cc(OCCCCCCSC(F)(F)F)c(Cl)cc1Cl (stereo not shown) [A-0479, 6-trifluoromethylthiohexyl-[2,4-dichloro-5-(2,2,2-trifluoroethylsulfinyl)phenyl] ether] |  | ≥ 90 |  |  |
| Cc1cc(C)c([S+]([O-])CC(F)(F)F)cc1OCCCCCCSC(F)(F)F (stereo not shown) [A-0481, 6-trifluoromethylthiohexyl-[2,4-dimethyl-5-(2,2,2-trifluoroethylsulfinyl)phenyl]ether] |  | ≥ 90 |  |  |
| [O-][S+](CC(F)(F)F)c1cc(OCCc2ccc(C(F)(F)F)cc2)c(Cl)cc1Cl (stereo not shown) [A-0767, 2-(4-trifluoromethylphenyl)ethyl-[2,4-dichloro-5-(2,2,2-trifluoroethylsulfinyl)phenyl] ether] |  | ≥ 90 |  |  |
| Cc1cc(C)c([S+]([O-])CC(F)(F)F)cc1OCCc1ccc(OC(F)(F)F)cc1 (stereo not shown) [A-0783, 2-(4′-trifluoromethoxyphenyl)ethyl-[2,4-dimethyl-5-(2,2,2-trifluoroethylsulfinyl)phenyl] ether] |  | ≥ 90 |  |  |
| Cc1cc(F)c(O)cc1SCC(F)(F)F [C-0001, 2-fluoro-4-methyl-5-(2,2,2-trifluoroethylthio)phenol] | ≥ 90 |  |  |  |
| C#CCOc1ccc(C)c(SCCC)c1 [compound 3] |  |  | no activity |  |
| C#CCOc1ccc(C)c([S+]([O-])CCC)c1 (stereo not shown) [compound 4] |  |  | no activity | no activity |
| CCCSc1cc(OCC=CCl)ccc1C [compound 5] |  |  | no activity | no activity |
| CCC[S+]([O-])c1cc(OCC=CCl)ccc1C (stereo not shown) [compound 6] |  |  | no activity | no activity |
| CCCSc1cc(OCc2ccc(Cl)cc2)ccc1C [compound 18] |  |  | no activity | no activity |
| CCC[S+]([O-])c1cc(OCc2ccc(Cl)cc2)ccc1C (stereo not shown) [compound 19] |  |  | no activity | no activity |
| CCCCCCOc1ccc(Cl)c(SCCC)c1 [compound 22] |  |  | no activity | no activity |
| CCCCCCOc1ccc(Cl)c([S+]([O-])CCC)c1 (stereo not shown) [compound 23] |  |  | no activity | no activity |
| CCCSc1cc(OCCCSCc2ccccc2)ccc1C [compound 36] |  |  | no activity | no activity |
